In PubChem BioAssay AID1919008 (Molecular Pharmacology Branch, DTP, NCI, 2023):

System: DMS-114 complex spheroids with HUVEC/MSC, growth % test/control
Experiment: Anticancer human tumor DMS-114 cell line growth inhibition [AhR];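 also: spheroids exposed to agents for 7 days before readout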;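 as to viability, T/C: 100% = DMSO vehicle control wells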
Conditions: for IC50: curve of first compound; for viability, T/C: stronger effect = lower value
Method in brief: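 Agents were dosed in half-log steps down from roughly clinical Cmax, or from 10 microM where Cmax was unknown, alone and with AhR antagonists. Read-out: percent test/control growth of tumor spheroids containing HUVEC and MSC stromal cells.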

[1] = second compound 0.1 µM, first compound 0.0316 µM
[2] = second compound 0.1 µM, first compound 0.1 µM
[3] = second compound 0.1 µM, first compound 0.316 µM
[4] = second compound 0.1 µM, first compound 1 µM
[5] = second compound 0.1 µM, first compound 3.16 µM
[6] = second compound 0.1 µM, first compound 10 µM
[7] = second compound 0.316 µM, first compound 0.0316 µM
[8] = second compound 0.316 µM, first compound 0.1 µM
[9] = second compound 0.316 µM, first compound 0.316 µM
[10] = second compound 0.316 µM, first compound 1 µM
[11] = second compound 0.316 µM, first compound 3.16 µM
[12] = second compound 0.316 µM, first compound 10 µM
[13] = second compound 1 µM, first compound 0.0316 µM
[14] = second compound 1 µM, first compound 0.1 µM
[15] = second compound 1 µM, first compound 0.316 µM
[16] = second compound 1 µM, first compound 1 µM
[17] = second compound 1 µM, first compound 3.16 µM
[18] = second compound 1 µM, first compound 10 µM
[19] = second compound 3.16 µM, first compound 0.0316 µM
[20] = second compound 3.16 µM, first compound 0.1 µM
[21] = second compound 3.16 µM, first compound 0.316 µM
[22] = second compound 3.16 µM, first compound 1 µM
[23] = second compound 3.16 µM, first compound 3.16 µM
[24] = second compound 3.16 µM, first compound 10 µM
[25] = second compound 10 µM, first compound 0.0316 µM
[26] = second compound 10 µM, first compound 0.1 µM
[27] = second compound 10 µM, first compound 0.316 µM
[28] = second compound 10 µM, first compound 1 µM
[29] = second compound 10 µM, first compound 3.16 µM
[30] = second compound 10 µM, first compound 10 µM

SMILES	IC50 (second compound 0.1 µM) [nM]	IC50 (second compound 0.316 µM) [nM]	IC50 (second compound 1 µM) [nM]	IC50 (second compound 3.16 µM) [nM]	IC50 (second compound 10 µM) [nM]	viability, T/C [1] [%]	viability, T/C [2] [%]	viability, T/C [3] [%]	viability, T/C [4] [%]	viability, T/C [7] [%]	viability, T/C [8] [%]	viability, T/C [9] [%]	viability, T/C [10] [%]	viability, T/C [13] [%]	viability, T/C [14] [%]	viability, T/C [15] [%]	viability, T/C [16] [%]	viability, T/C [19] [%]	viability, T/C [20] [%]	viability, T/C [21] [%]	also measured
CC(C)c1c(-c2ccccc2)nc2c(C#N)c[nH]n2c1=O + Cc1cncc(-c2nc(NCCc3c[nH]c4ccccc34)c3ncn(C(C)C)c3n2)c1	> 10000	> 10000	> 10000	> 10000	< 31.6	111	100	103	108	107	97.9	103	92.6	107	107	102	112	92.9	80.6	83.3	viability, T/C [5]: 97.4%; viability, T/C [6]: 97.4%; viability, T/C [11]: 111%; viability, T/C [12]: 95.3%; viability, T/C [17]: 101%; viability, T/C [18]: 108%; viability, T/C [22]: 88.8%; viability, T/C [23]: 86.4%; viability, T/C [24]: 92.6%; viability, T/C [25]: 30.4%; viability, T/C [26]: 40.1%; viability, T/C [27]: 33.3%; viability, T/C [28]: 40%; viability, T/C [29]: 32.5%; viability, T/C [30]: 46.4%
CC1COCCN1c1cc(-c2ccnn2C)c2ccnc(-c3ccn[nH]3)c2n1 (stereo not given) + Cc1cncc(-c2nc(NCCc3c[nH]c4ccccc34)c3ncn(C(C)C)c3n2)c1	38	51	41.5	41.8	< 3.16	51	29.9	19.6	12.8	61.8	31.4	19.8	12	55.3	27.9	23.6	11.7	55.8	26.7	17	viability, T/C (second compound 0.1 µM, first compound 0.00316 µM): 90.6%; viability, T/C (second compound 0.1 µM, first compound 0.01 µM): 85.9%; viability, T/C (second compound 0.316 µM, first compound 0.00316 µM): 97.1%; viability, T/C (second compound 0.316 µM, first compound 0.01 µM): 93.7%; viability, T/C (second compound 1 µM, first compound 0.00316 µM): 87.5%; viability, T/C (second compound 1 µM, first compound 0.01 µM): 92.6%; viability, T/C (second compound 3.16 µM, first compound 0.00316 µM): 83.9%; viability, T/C (second compound 3.16 µM, first compound 0.01 µM): 85.9%; viability, T/C [22]: 11.2%; viability, T/C (second compound 10 µM, first compound 0.00316 µM): 28.8%; viability, T/C (second compound 10 µM, first compound 0.01 µM): 29.6%; viability, T/C [25]: 22.6%; viability, T/C [26]: 15.5%; viability, T/C [27]: 9.12%; viability, T/C [28]: 7.26%
COc1ccc([C@@H](O)c2cc(-c3ncnc4cc(N5CCOCC5)ccc34)c(F)cc2Cl)nn1 + Cc1cncc(-c2nc(NCCc3c[nH]c4ccccc34)c3ncn(C(C)C)c3n2)c1	> 10000	> 10000	> 10000	7740	< 31.6	125	95.8	102	104	101	93	96.2	104	98.7	103	99.8	107	87	90.1	98.7	viability, T/C [5]: 107%; viability, T/C [6]: 55.7%; viability, T/C [11]: 87.5%; viability, T/C [12]: 52.2%; viability, T/C [17]: 94.4%; viability, T/C [18]: 53.2%; viability, T/C [22]: 94.5%; viability, T/C [23]: 85.4%; viability, T/C [24]: 39.5%; viability, T/C [25]: 35.6%; viability, T/C [26]: 38.9%; viability, T/C [27]: 29.7%; viability, T/C [28]: 29.7%; viability, T/C [29]: 17.9%; viability, T/C [30]: 12.4%
